Data published in patent US8158605B2, “Azacytidine analogues and uses thereof” (Mount Sinai School of Medicine, priority 2007, dated 2012).

Columns and labels:
[1] = test system: Hela cervix carcinoma cells; experiment: MTT cytotoxicity with or without nucleoside transport inhibitor dipyridamole; type: cell-based; details: for IC50: Homo sapiens, HeLa, 72 h, MTT
Method: Dipyridamole was used as an inhibitor of the equilibrative nucleoside transporters hENT1 and hENT2. […] The cells were pre-incubated for 24 hours. Dipyridamole (10 μM) was added to the cells 30 minutes prior to the addition of the test compounds. […] Six wells were used per test concentration. The cells were incubated with test compound for 72 hours.

[2] = test system: breast carcinoma cell line MT-3; experiment: MTT cytotoxicity; type: cell-based; details: MT-3 breast carcinoma, 24 hours
Method: (§1) The cytotoxicity of Aza-C and 5-Aza-C-5′-elaidic acid was determined in a breast cancer cell line MT-3 and the adriablastin resistant cell line MT-3/ADR. The MT-3/ADR overexpress the MDR-1/p-glycoprotein. […] The cells were incubated for 24 hours. […] Six wells were used per test concentration. The cells were incubated with test compound for 24 hours. […] Similar activity was obtained for Aza-C and 5-Aza-C-5′-elaidic acid in the MT-3 breast carcinoma cell line, but in the MT-3/ADR resistant cell line the activity of Aza-C was lost. […] This may be of importance in the treatment of resistant cancer.

[3] = test system: MT-3/ADR resistant breast carcinoma; experiment: MTT cytotoxicity; type: cell-based; details: MDR1, MT-3/ADR resistant breast carcinoma (overexpress MDR-1/p-glycoprotein), 24 hours
Method: as §1

Jurkat = experiment: WST-1 cytotoxicity assay; type: cell-based; details: Homo sapiens
Method: (§2) Human promyelocytic leukemia cell lines HL60, human histiocytic lymphoma U937, human chronic myelogenous leukemia K562, human acute T cell Jurkat, breast adenocarcinoma MCF-7, urinary bladder carcinoma 5637, prostate carcinoma DU-145 were purchased from American Type Culture Collection. All cell lines except Jurkat were maintained in RPMI 1640 medium (Gibco, Glasgow, UK) supplemented with 10% heat-inactivated fetal calf serum (FCS), 100 U/ml of penicillin, and […] streptomycin, in an atmosphere of 5% CO2 at 37° C. Jurkat cells were cultured in RPMI 1640 medium supplemented with 1.5 g/L sodium bicarbonate, 4.5 g/L glucose, 10 mM sodium pyruvate, and 10% FCS, 100 U/ml of penicillin, and […] streptomycin.
(§3) MCF-7, DU-145, and 5637 cells (1×10^4/ml) were plated and allowed to adhere and spread for 24 hours. […] Cultures were incubated with WST-1 reagent for 1 hour. The production of formazan was measured by a microplate reader (Bio-Tek Instruments, Elx 800) at 450 nm with a reference wavelength of 650 nm. Growth inhibition was determined as compared to untreated cells (%). IC50 values were calculated using CalcuSyn software (Biosoft).

MCF-7 = experiment: WST-1 cytotoxicity assay; type: cell-based; details: Homo sapiens, MCF7
Method: as §2, §3

K562 = experiment: WST-1 cytotoxicity assay; type: cell-based; details: Homo sapiens
Method: as §2, §3

HL60 = experiment: WST-1 cytotoxicity assay; type: cell-based; details: Homo sapiens, HL-60
Method: as §2, §3

5637 = experiment: WST-1 cytotoxicity assay; type: cell-based
Method: as §2, §3

DU145 = experiment: WST-1 cytotoxicity assay; type: cell-based; details: Homo sapiens, DU-145
Method: as §2, §3

U937 = experiment: WST-1 cytotoxicity assay; type: cell-based; details: Homo sapiens, U-937
Method: as §2, §3

[4] = test system: U937, HL60 and K562 cells; experiment: Differentiating induction (NBT reduction, benzidine staining); type: cell-based, human; details: repeated exposure for 11 (HL60) or 14 (U937, K562) days
Method: Cell differentiation was studied in terms of morphology. […] After initial treatment on day 0, cells were exposed to the new portions of drugs on day 4, 7, and 10. The differentiation was evaluated by NBT reduction assay (U937 and HL60) or by benzidine staining (K562).

NFκB = experiment: LPS stimulated NFκB luciferase reporter activity in U937 cells; type: cell-based, human; details: 10 nM, LPS 1 μg/ml, 1, 3 or 6 hours, compared to DMSO treated control
Method: NFκB-luciferase reporter genes were used to determine the influence of Aza-C and 5-Aza-C-5′-elaidic acid on NFκB-induced luciferase activity in a human monocytic cell line U937, stably transfected with a luciferase reporter containing three NFκB-binding sites. The induction of NFκB was performed using lipopolysaccharide (LPS) at 1 μg/ml for 30 minutes prior to the addition of Aza-C or 5-Aza-C-5′-elaidic acid in the concentrations 10 nM to the medium. The cells were cultured in RPMI-1640 medium including 10% fetal bovine serum. Before stimulation with LPS the cells were transferred to medium containing only 2% fetal bovine serum. Luciferase activity was measured by imaging in an IVIS imaging System 100 (Xenogen Corp., USA) after 1, 3 or 6 hours. The LPS stimulation increased with time over the 6 hours followed in the DMSO treated control cells. […] Generally, a positive stimulation of NFκB as observed for azacytidine is not positive, and it is positive that the LPS stimulation is not further increased by 5′Aza-C-5′-elaidic acid.

[5] = clinical plasma samples; cited from earlier work

For Nc1ncn([C@@H]2O[C@H](CO)[C@@H](O)[C@H]2O)c(=O)n1 [5-AzaC, 5-azacytidine, reference compound], the “activity reduced by addition of dipyridamole” value ([1]; Hela, with vs without dipyridamole) was 3 fold, the IC50 ([1]; Hela with dipyridamole (10 μM)) was 12.8 µM and the IC50 ([1]; without dipyridamole) was 4.32 µM. The IC50 [2] was 12.6 ± 2.35 µM, the IC50 [3] was over 100 µM and the IC50 (Jurkat; 24 hour treatment) was 9.5 µM. It also gave an IC50 (Jurkat; 48 hour treatment) of 5.32 µM, an IC50 (Jurkat; 72 hour treatment) of 4.77 µM and an IC50 (MCF-7; MCF-7, 24 hour treatment) of over 160 µM. The IC50 (MCF-7; MCF-7, 48 hour treatment) was 93.7 µM, the IC50 (MCF-7; MCF-7, 72 hour treatment) was 53 µM and the IC50 (K562; K562, 24 hour treatment) was 8.27 µM. It also gave an IC50 (K562; K562, 48 hour treatment) of 15.5 µM, an IC50 (K562; K562, 72 hour treatment) of 5.83 µM and an IC50 (HL60; HL60, 24 hour treatment) of 7.28 µM. It also gave an IC50 (HL60; HL60, 48 hour treatment) of 4.92 µM, an IC50 (HL60; HL60, 72 hour treatment) of 4.71 µM and an IC50 (5637; 5637, 24 hour treatment) of 24.6 µM. The IC50 (5637; 5637, 48 hour treatment) was 6.72 µM, the IC50 (5637; 5637, 72 hour treatment) was 5.21 µM and the IC50 (DU145; DU145, 24 hour treatment) was 20.9 µM. It also gave an IC50 (DU145; DU145, 48 hour treatment) of 7.11 µM, an IC50 (DU145; DU145, 72 hour treatment) of 7.2 µM and an IC50 (U937; U937, 24 hour treatment) of 1.63 µM. For the same molecule, the IC50 (U937; U937, 48 hour treatment) was 2.37 µM, the IC50 (U937; U937, 72 hour treatment) was 4.77 µM and the differentiation induction [4] was “did not induce significant differentiation”. For the same molecule, the “LPS stimulated NFκB luciferase activity” value (NFκB) was “further increased the LPS induced NFκB activation” and the average terminal half-life [5] was 1.50 ± 2.30 h.
